For 19 compounds, inhibition results are on record in patent publication US10081635B2, “Substituted N-(pyrrolidine-3-yl)-7H-pyrrolo[2,3-D]pyrimidine-4-amine as janus kinase inhibitor” (YANG JI CHEMICAL CO., LTD., priority 2014, dated 2018).

Common to all, as to assay type: biochemical
Test [1] deals with Human JAK1 (Homo sapiens (Human), UniProt P23458). Briefly: In vitro kinase inhibition test, JAK1 (33P-ATP filter scintillation). The note with it: compound at 1 uM; read-out: JAK1 kinase-phosphorylation inhibitory level (% inhibition). The method, then:
(§1) 1. In Vitro Kinase Inhibition Test
(§2) Kinases used were human-derived JAK1, JAK2, JAK3, and TYK2 (Millipore, Germany). Each of these kinases was diluted with a suitable buffer solution as described below, and then mixed with reagents.
Tris(hydroxymethyl)aminomethane (TRIS) and ethylenediaminetetraacetic acid (EDTA) were dissolved in distilled water at a concentration of 20 mM and 0.2 mM, respectively, and 100 uL of β-mercaptoethanol, 10 uL of Brij-35™, and 5 mL of glycerol, each per 100 mL of the solution, were added to the solution, thereby preparing a JAK1 dilution buffer solution.
(§3) Each compound was dissolved in a 100% DMSO solution at a 50 uM concentration. This solution was reacted with reagents in wells on a 96-well plate to reach a final concentration of 1 uM. Detailed experimental methods for each kinase are described below.
After reaction for about 40 minutes at room temperature, the reaction was stopped by adding 5 uL of a 3% (v/v) phosphoric acid solution. […] The methanol drying is a drying process using an azeotropic effect, wherein methanol is added into an aqueous solution for drying.
(§4) In Tables 5 and 6, the numbers in the “Example” column, which are identification numbers of the examples, indicate the compounds synthesized in the corresponding examples, the values in the “JAK1”, “JAK2”, “JAK3”, and “TYK2” columns represent kinase-phosphorylation inhibitory levels as a percentage (%) of the compounds synthesized in the corresponding examples at a 1 uM concentration. In Tables 5 and 6, negative values substantially indicate no inhibitory effect.
(§5) The inhibitory levels (% inhibition) represent a percentage of reduction in phosphorylation activity in each test group with respect to the phosphorylation activity of a corresponding kinase in a negative control group lacking any of the compounds synthesized in the examples. % inhibition=[(Scintillation value of Test compound non-treatment group−Scintillation value of Test compound treatment group)/(Scintillation value of Test compound non-treatment group)]×100

Test [2] has as its target Human JAK2 (Homo sapiens (Human), UniProt O60674). Briefly: In vitro kinase inhibition test, JAK2 (33P-ATP filter scintillation). The note with it: compound at 1 uM; read-out: JAK2 kinase-phosphorylation inhibitory level (% inhibition). The method, then:
as §1, §2
(§6) 3-morpholinopropane-1-sulfonic acid (MOPS) and EDTA were dissolved in distilled water at a concentration of 20 mM and 1 mM, respectively, and 100 uL of β-mercaptoethanol, 10 uL of Brij-35™, 5 mL of glycerol, and 100 mg of bovine serum albumin (BSA), each per 100 mL of the solution, were added to the solution, thereby preparing a JAK2, JAK3, and TYK2 dilution buffer solution.
as §3
(§7) After reaction for about 40 minutes at room temperature, the reaction was stopped by adding 5 uL of a 3% (v/v) phosphoric acid solution.
as §4, §5

Test [3] has as its target Human JAK3 (Homo sapiens (Human), UniProt P52333). The experiment in a line: In vitro kinase inhibition test, JAK3 (33P-ATP filter scintillation). The following applies: compound at 1 uM; read-out: JAK3 kinase-phosphorylation inhibitory level (% inhibition). The method, then:
as §1, §2, §6, §3, §7, §4, §5

For test [4], the target named is Human TYK2 (Homo sapiens (Human), UniProt P29597). The experiment in a line: In vitro kinase inhibition test, TYK2 (33P-ATP filter scintillation). The note with it: compound at 1 uM; read-out: TYK2 kinase-phosphorylation inhibitory level (% inhibition). As for the experimental part:
as §1, §2, §6, §3, §7, §4, §5

Human JAK3, sequence (P52333 whole entry): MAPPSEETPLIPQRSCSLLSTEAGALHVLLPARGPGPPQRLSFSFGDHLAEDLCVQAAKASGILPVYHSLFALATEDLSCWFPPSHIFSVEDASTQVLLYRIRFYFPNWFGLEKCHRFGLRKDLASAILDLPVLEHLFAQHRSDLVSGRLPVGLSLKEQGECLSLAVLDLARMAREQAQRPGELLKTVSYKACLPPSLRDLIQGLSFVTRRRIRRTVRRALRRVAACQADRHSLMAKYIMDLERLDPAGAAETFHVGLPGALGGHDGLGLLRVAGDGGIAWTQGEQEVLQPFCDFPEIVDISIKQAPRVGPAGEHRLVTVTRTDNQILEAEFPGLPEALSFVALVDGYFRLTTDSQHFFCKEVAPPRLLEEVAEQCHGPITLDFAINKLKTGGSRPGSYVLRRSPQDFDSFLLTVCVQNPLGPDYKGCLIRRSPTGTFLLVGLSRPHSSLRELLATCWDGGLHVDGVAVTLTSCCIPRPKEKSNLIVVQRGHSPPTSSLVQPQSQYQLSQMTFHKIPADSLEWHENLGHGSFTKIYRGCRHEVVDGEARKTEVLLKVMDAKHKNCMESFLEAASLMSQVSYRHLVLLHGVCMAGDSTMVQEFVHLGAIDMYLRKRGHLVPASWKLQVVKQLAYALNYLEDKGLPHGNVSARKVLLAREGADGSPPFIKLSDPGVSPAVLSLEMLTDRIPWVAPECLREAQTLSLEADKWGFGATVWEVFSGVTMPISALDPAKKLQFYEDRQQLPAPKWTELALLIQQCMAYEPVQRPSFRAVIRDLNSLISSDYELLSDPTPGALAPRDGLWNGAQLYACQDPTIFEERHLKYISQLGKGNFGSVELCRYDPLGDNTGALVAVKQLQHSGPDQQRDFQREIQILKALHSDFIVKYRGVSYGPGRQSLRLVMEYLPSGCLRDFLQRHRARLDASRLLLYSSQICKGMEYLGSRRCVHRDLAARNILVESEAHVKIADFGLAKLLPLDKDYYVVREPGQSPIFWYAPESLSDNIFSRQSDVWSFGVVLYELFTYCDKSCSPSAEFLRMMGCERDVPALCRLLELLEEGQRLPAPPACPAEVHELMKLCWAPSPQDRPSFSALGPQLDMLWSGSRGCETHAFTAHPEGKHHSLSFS
Human JAK1, sequence (P23458 whole entry): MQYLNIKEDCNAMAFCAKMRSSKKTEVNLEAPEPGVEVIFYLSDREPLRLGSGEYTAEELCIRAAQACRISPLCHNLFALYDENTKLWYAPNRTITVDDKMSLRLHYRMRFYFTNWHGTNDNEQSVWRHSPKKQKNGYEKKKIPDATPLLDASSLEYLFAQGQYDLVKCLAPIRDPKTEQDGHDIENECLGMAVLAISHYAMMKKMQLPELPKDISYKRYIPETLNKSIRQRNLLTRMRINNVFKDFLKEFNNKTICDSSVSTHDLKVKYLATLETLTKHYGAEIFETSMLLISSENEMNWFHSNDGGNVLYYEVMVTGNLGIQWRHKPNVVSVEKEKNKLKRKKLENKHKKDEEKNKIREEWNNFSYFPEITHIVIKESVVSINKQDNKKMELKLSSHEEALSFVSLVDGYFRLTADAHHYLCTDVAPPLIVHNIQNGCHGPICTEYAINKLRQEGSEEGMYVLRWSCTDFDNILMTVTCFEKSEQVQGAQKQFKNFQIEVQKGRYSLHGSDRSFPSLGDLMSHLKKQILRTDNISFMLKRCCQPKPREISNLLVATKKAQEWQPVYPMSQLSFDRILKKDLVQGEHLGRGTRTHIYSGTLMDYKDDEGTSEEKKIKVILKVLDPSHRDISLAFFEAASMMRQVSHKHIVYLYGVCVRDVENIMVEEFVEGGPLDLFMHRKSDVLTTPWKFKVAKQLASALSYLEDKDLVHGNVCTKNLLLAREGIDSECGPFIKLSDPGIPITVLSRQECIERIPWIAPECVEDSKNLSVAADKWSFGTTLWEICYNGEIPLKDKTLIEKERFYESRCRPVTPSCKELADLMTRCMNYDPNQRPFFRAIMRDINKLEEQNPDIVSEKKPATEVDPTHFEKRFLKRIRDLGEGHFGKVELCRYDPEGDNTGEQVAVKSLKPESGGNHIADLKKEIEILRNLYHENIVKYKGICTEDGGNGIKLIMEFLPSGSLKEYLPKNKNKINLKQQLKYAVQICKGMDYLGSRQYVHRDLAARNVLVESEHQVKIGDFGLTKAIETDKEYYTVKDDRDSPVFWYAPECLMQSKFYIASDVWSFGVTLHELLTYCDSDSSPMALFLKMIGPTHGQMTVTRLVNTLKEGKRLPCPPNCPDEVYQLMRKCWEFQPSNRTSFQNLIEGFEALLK
Human TYK2, sequence (P29597 whole entry): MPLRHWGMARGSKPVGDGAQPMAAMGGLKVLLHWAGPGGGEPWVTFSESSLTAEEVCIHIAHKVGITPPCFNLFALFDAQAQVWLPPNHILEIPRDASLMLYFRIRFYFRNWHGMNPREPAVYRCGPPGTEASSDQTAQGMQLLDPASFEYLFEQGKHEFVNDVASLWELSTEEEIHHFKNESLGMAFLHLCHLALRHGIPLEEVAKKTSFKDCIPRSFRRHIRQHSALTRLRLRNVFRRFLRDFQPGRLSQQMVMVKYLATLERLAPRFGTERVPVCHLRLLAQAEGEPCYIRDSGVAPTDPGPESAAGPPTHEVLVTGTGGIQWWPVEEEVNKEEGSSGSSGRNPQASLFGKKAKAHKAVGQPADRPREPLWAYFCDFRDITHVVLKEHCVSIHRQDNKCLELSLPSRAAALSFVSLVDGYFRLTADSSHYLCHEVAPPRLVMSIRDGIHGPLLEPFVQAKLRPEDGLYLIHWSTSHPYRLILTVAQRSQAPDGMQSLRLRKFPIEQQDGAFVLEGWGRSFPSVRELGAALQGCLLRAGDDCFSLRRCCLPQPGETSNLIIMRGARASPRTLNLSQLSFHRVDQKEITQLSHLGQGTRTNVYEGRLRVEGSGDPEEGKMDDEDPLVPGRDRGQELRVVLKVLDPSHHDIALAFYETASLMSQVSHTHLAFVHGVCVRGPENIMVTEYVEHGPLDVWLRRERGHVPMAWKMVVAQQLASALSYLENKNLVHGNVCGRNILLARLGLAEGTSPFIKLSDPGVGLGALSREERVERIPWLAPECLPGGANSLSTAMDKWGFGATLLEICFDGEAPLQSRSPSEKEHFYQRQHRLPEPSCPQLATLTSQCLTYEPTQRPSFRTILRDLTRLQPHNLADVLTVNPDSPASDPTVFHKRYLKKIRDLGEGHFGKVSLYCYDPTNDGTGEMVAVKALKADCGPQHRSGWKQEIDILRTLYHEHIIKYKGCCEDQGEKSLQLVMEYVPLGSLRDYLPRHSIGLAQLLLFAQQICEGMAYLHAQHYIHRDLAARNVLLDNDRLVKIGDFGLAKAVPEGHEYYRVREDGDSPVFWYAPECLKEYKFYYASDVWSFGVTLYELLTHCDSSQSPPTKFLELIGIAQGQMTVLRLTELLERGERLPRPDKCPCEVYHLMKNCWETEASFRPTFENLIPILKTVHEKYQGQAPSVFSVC
Human JAK2, sequence (O60674 whole entry): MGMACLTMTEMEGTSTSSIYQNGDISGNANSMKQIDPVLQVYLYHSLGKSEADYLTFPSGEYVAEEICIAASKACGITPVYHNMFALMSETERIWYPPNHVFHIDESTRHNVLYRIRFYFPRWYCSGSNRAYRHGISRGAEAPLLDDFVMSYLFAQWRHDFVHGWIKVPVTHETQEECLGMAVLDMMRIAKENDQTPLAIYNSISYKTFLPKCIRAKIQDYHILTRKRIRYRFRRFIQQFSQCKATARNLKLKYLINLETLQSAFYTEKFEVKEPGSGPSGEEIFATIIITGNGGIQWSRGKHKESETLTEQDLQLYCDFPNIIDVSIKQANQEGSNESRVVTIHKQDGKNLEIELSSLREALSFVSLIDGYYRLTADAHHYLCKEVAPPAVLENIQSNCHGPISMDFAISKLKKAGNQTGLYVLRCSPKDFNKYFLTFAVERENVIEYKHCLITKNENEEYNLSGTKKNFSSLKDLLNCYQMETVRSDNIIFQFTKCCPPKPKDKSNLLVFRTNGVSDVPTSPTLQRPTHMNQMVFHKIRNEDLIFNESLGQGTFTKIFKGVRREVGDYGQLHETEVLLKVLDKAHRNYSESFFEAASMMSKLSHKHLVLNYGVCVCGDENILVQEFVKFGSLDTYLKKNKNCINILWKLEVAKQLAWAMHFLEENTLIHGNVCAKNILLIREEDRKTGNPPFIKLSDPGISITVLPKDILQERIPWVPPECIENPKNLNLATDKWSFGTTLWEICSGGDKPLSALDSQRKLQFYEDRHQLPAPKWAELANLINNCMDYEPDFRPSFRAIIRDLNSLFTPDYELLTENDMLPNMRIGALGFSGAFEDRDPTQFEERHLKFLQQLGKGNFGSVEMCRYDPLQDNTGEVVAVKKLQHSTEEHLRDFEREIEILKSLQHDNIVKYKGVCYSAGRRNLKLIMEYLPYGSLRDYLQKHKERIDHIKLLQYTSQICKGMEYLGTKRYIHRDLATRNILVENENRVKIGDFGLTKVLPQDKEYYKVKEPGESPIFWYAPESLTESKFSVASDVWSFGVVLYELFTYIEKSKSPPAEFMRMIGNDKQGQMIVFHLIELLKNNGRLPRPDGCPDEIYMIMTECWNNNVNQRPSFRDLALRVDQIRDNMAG

With `CN(c1ncnc2[nH]ccc12)[C@H]1CN(C(=O)c2ccc(C#N)cc2)CC12CC2` [Example 16, (R)-4-(7-(methyl(7H-pyrrolo[2,3-d]pyrimidin-4-yl)amino)-5-azaspiro[2.4]heptane-5-carbonyl)benzonitrile], the inhibition (usually the drop in the measured response relative to a control, in per cent) at 1 µM in test [1] is 79%; in test [2] it was 13%; in test [3], 15%; in test [4] it was 23%.
The like results for `CN(c1ncnc2[nH]ccc12)[C@@H]1CN(C(=O)CN=[N+]=[N-])CC12CC2` [Example 65, (S)-2-azido-1-(7-(methyl(7H-pyrrolo[2,3-d]pyrimidin-4-yl)amino)-5-azaspiro[2.4]heptan-5-yl)ethan-1-one] were, in that order, 41%, 12%, -16% and 14%.
For the compound `CC(C)COC(=O)N1C[C@H](N(C)c2ncnc3[nH]ccc23)C2(CC2)C1` [Example 20, isobutyl (R)-7-(methyl(7H-pyrrolo[2,3-d]pyrimidin-4-yl)amino)-5-azaspiro[2.4]heptane-5-carboxylate], the inhibition at 1 µM in test [1] stood at 93%; in test [2], 27%; in test [3], 27%; in test [4], 43%.
Turning to `COc1ccc(S(=O)(=O)N2C[C@H](N(C)c3ncnc4[nH]ccc34)C3(CC3)C2)cc1` [Example 47, (R)-N-(5-((4-methoxyphenyl)sulfonyl)-5-azaspiro[2.4]heptan-7-yl)-N-methyl-7H-pyrrolo[2,3-d]pyrimidin-4-amine], the inhibition at 1 µM in test [1] came to 99%; in test [2], 69%; in test [3], 39%; in test [4], 71%.
The like results for `CN(c1ncnc2[nH]ccc12)[C@@H]1CN(S(=O)(=O)c2ccccc2)CC12CC2` [Example 72, (S)-N-methyl-N-(5-(phenylsulfonyl)-5-azaspiro[2.4]heptan-7-yl)-7H-pyrrolo[2,3-d]pyrimidin-4-amine] were, in that order, 55%, 10%, -1% and 28%.
As for `CN(c1ncnc2[nH]ccc12)[C@H]1CN(C(=O)c2cccnc2)CC12CC2` [Example 12, (R)-(7-(methyl(7H-pyrrolo[2,3-d]pyrimidin-4-yl)amino)-5-azaspiro[2.4]heptan-5-yl)(pyridin-3-yl)methanone], the inhibition at 1 µM in test [1] is 80%; in test [2] it was -11%; in test [3], 2%; in test [4], 26%.
The like results for `CN(c1ncnc2[nH]ccc12)[C@H]1CN(S(=O)(=O)C(F)(F)F)CC12CC2` [Example 32, (R)-N-methyl-N-(5-((trifluoromethyl)sulfonyl)-5-azaspiro[2.4]heptan-7-yl)-7H-pyrrolo[2,3-d]pyrimidin-4-amine] were, in that order, 97%, 68%, 59% and 86%.
The like results for `CN(c1ncnc2[nH]ccc12)C1CN(C(=O)CCN)CC12CC2` (stereo not shown) [Example 58, 3-amino-1-(7-(methyl(7H-pyrrolo[2,3-d]pyrimidin-4-yl)amino)-5-azaspiro[2.4]heptan-5-yl)propan-1-one] were, in that order, 34%, 2%, -9% and -4%.
The like results for `CN(c1ncnc2[nH]ccc12)C1CN(C(=S)CC#N)CC12CC2` (stereo not shown) [Example 60, 3-(7-(methyl(7H-pyrrolo[2,3-d]pyrimidin-4-yl)amino)-5-azaspiro[2.4]heptan-5-yl)-3-thioxopropanenitrile] were, in that order, 96%, -3%, -14% and 0%.
`CN(c1ncnc2[nH]ccc12)[C@H]1CN(C(=O)Nc2ccc(Cl)c(Cl)c2)CC12CC2` [Example 26, (R)-N-(3,4-dichlorophenyl)-7-(methyl(7H-pyrrolo[2,3-d]pyrimidin-4-yl)amino)-5-azaspiro[2.4]heptane-5-carboxamide]: the inhibition at 1 µM in test [1] came out at 94%; in test [2], 13%; in test [3], 51%; in test [4], 42%.
The like results for `CN(c1ncnc2[nH]ccc12)[C@H]1CN(C(=S)CC#N)CC12CC2` [Example 19, (R)-3-(7-(methyl(7H-pyrrolo[2,3-d]pyrimidin-4-yl)amino)-5-azaspiro[2.4]heptan-5-yl)-3-thioxopropanenitrile] were, in that order, 98%, 80%, 82% and 91%.
The like results for `CCCCN1C[C@H](N(C)c2ncnc3[nH]ccc23)C2(CC2)C1` [Example 1, (R)-N-(5-butyl-5-azaspiro[2.4]heptan-7-yl)-N-methyl-7H-pyrrolo[2,3-d]pyrimidin-4-amine] were, in that order, 79%, -14%, 8% and -4%.
The like results for `CN(c1ncnc2[nH]ccc12)C1CN(C(=O)Cn2ccnc2)CC12CC2` (stereo not shown) [Example 59, 2-(1H-imidazol-1-yl)-1-(7-(methyl(7H-pyrrolo[2,3-d]pyrimidin-4-yl)amino)-5-azaspiro[2.4]heptan-5-yl)ethan-1-one] were, in that order, 72%, -17%, 20% and -8%.
As to `CNC(=O)CC(=O)N1C[C@H](N(C)c2ncnc3[nH]ccc23)C2(CC2)C1` [Example 8, (R)-N-methyl-3-(7-(methyl(7H-pyrrolo[2,3-d]pyrimidin-4-yl)amino)-5-azaspiro[2.4]heptan-5-yl)-3-oxopropanamide], the inhibition at 1 µM was 61% in test [1], -7% in test [2], 3% in test [3] and 11% in test [4].
With `CN(c1ncnc2[nH]ccc12)[C@@H]1CN(C(=O)c2ccc(C#N)cc2)CC12CC2` [Example 68, (S)-4-(7-(methyl(7H-pyrrolo[2,3-d]pyrimidin-4-yl)amino)-5-azaspiro[2.4]heptane-5-carbonyl)benzonitrile], the inhibition at 1 µM in test [1] is 14%; in test [2], -5%; in test [3], -7%; in test [4], 2%.
The like results for `CC(C)CC(=O)N1C[C@H](N(C)c2ncnc3[nH]ccc23)C2(CC2)C1` [Example 6, (R)-3-methyl-1-(7-(methyl(7H-pyrrolo[2,3-d]pyrimidin-4-yl)amino)-5-azaspiro[2.4]heptan-5-yl)butan-1-one] were, in that order, 90%, 21%, 18% and 46%.
With `CN(c1ncnc2[nH]ccc12)[C@H]1CN(S(=O)(=O)c2ccccc2F)CC12CC2` [Example 37, (R)-N-(5-((2-fluorophenyl)sulfonyl)-5-azaspiro[2.4]heptan-7-yl)-N-methyl-7H-pyrrolo[2,3-d]pyrimidin-4-amine], the inhibition at 1 µM in test [1] amounted to 98%; in test [2], 84%; in test [3], 61%; in test [4], 90%.
The like results for `CCCS(=O)(=O)N1C[C@H](N(C)c2ncnc3[nH]ccc23)C2(CC2)C1` [Example 35, (R)-N-methyl-N-(5-(propylsulfonyl)-5-azaspiro[2.4]heptan-7-yl)-7H-pyrrolo[2,3-d]pyrimidin-4-amine] were, in that order, 99%, 78%, 77% and 89%.
The like results for `CN(c1ncnc2[nH]ccc12)[C@H]1CN(S(=O)(=O)c2ccccc2C#N)CC12CC2` [Example 40, (R)-2-((7-(methyl(7H-pyrrolo[2,3-d]pyrimidin-4-yl)amino)-5-azaspiro[2.4]heptan-5-yl)sulfonyl)benzonitrile] were, in that order, 94%, 64%, 47% and 72%.
